Values quoted from earlier work, collected in patent US10201584B1, “Compositions and methods for treating HCV” (AbbVie Inc., priority 2011, dated 2019).

Test system: HCV
Details: hepatitis C patients; background statement

NC(=O)c1ncn([C@@H]2O[C@H](CO)[C@@H](O)[C@H]2O)n1 [ribavirin]
suppression of HCV levels / effectiveness of regimen: does not effectively suppress HCV levels
